Converted amounts (≈) assume the structure as drawn.
Experiments:
C. jejuni ATCC 33291 = experiment: MIC broth microdilution (NCCLS), fastidious bacteria; assay type: cell-based; settings: Campylobacter jejuni, ATCC33291; C. jejuni ATCC 33291; MHBCA with 2% laked horse blood, 5% CO2; read-out: MIC
Outline: (§1)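 NCCLS broth microdilution; inoculum 10^5-10^6 CFU/ml; 2-fold serial dilutions; 35° C, 24 h; A650 plus visual read. Media: MHBCA (S. saprophyticus, E. faecium), MHBCA + 2% laked horse blood (Listeria), HTM (Haemophilus), the last two under 5% CO2.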

H. influenzae ATCC 49247 = experiment: as above; assay type: cell-based; settings: Haemophilus influenzae, ATCC49247, HTM, 5% CO2
Outline: as §1

H. influenzae ATCC 49766 = experiment: as above; assay type: cell-based; settings: Haemophilus influenzae, ATCC49766, HTM, 5% CO2
Outline: as §1

[1] = tested on: L. monocytogenes ATCC 13932; experiment: as above; assay type: cell-based; settings: Listeria monocytogenes, ATCC13932, MHBCA with 2% laked horse blood, 5% CO2
Outline: as §1

B. catarrhalis ATCC 8176 [2] = experiment: as above; assay type: cell-based, Branhamella (Moraxella) catarrhalis; settings: Moraxella catarrhalis, ATCC8176, HTM, 5% CO2
Outline: as §1

E. faecium VanA = experiment: MIC broth microdilution, antibiotic resistant strain panel; assay type: cell-based; settings: Enterococcus faecium; multi-resistant E. faecium VanA; read-out: MIC
Outline: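 MHBCA, 10^5-10^6 CFU/ml, 2-fold serial dilutions, 24 h at 35° C. Growth read at 650 nm and visually. MIC = lowest concentration with no visible growth.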

B. catarrhalis ATCC 8176 [3] = experiment: Minimal Bactericidal Concentration (MBC); assay type: cell-based, Branhamella (Moraxella) catarrhalis; settings: Moraxella catarrhalis, ATCC8176, 99.9% killing
Outline: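 Bactericidal endpoint follows the MIC read: aliquots of every well without visible growth, no fewer than five, go onto TSA. Incubation lasts exactly 24 h at 35° C. Surviving colonies are then counted.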

[4] = tested on: bacteria of the primary strain panel; experiment: MBCs compared with MICs over the strain panels; assay type: cell-based; settings: most of the time, over tested strains
Experimental: Minimal Inhibitory Concentration (MIC) Determination. Bacteria (primary strain panel, TABLE 1). Susceptibility tests were performed following the recommendations from the National Committee for Clinical Standards (NCCLS). The MICs were determined by a broth microdilution technique using a final volume of 100 μl of cation-adjusted Mueller Hinton Broth (MHBCA) and a bacterial inoculum of 10^5-10^6 Colony Forming Units (CFU)/ml. The inocula were verified and precisely determined by applying 10-μl drops of 10-fold dilutions onto Triptic Soy Agar plates. The CFU were counted after an incubation of 24 h at 35° C. Any experiment showing an inoculum that was more or less than 10^5-10^6 CFU/ml was rejected. Control antibiotics and test compounds were prepared at a concentration equivalent to 2-fold the highest desired final concentration. […] Microtiter plates were incubated during 24 h at 35° C. and growth was recorded by using a microtiterplate reader at 650 nm as well as by visual observation. […]
Minimal Bactericidal Concentration (MBC). After the microtiter plates were read for the determination of the MIC, a 10-μl sample of each clear well (at least 5 wells without visible growth) was applied onto TSA plates for viable counts determination.
Petri dishes were incubated at 35° C. for exactly 24 h and bacterial colonies were counted.

S. aureus ATCC 29213 = experiment: Time-kill curves; assay type: cell-based, Staphylococcus aureus; settings: at their respective MIC or a multiple of the MIC
Experimental: (§2) Time-kill curves. The bactericidal action of compounds was also evaluated over time (time-kill curve experiments). A bacterial inoculum of 1×10^5-1×10^7 Colony Forming Units (CFU)/ml was prepared. The inocula were verified and precisely determined by applying 10-μl drops of 10-fold dilutions onto Triptic Soy Agar plates. The CFU were counted after an incubation of 24 h at 35° C. Any experiment showing an inoculum that was more or less than the desired range of CFU/ml was rejected. Time-kill curve experiments were performed in 30 ml of MHB placed in 50-ml shaking flasks over a period of 24 hours. Test compounds and control antibiotics were added at time 0 hour and, at each time point, a sample was removed from flasks and the CFU determined by plate counts as described above. CFU from compound-treated cultures were compared to CFU collected from the control flask without antibiotic. Test compounds and control antibiotics were assayed at the MIC or a multiple of the MIC as determined by a broth microdilution technique as described above.

S. aureus MRSA COL = experiment: Time-kill curves; assay type: cell-based, Staphylococcus aureus; settings: data not shown
Experimental: as §2

E. coli ATCC 25922 = experiment: Time-kill curves; assay type: cell-based, Escherichia coli
Experimental: as §2

S. aureus strain Newman = experiment: S. aureus model of systemic infection in the mouse; assay type: in vivo, Staphylococcus aureus; settings: CD-1 female mice, i.p. 10^7 CFU S. aureus Newman; oral gavage 15 mg/kg at 1 hour post-infection; kidneys 5 hours after inoculation; FIG. 3
Experimental: In vivo efficacy. The antimicrobial activity of compounds was also evaluated in a S. aureus model of systemic infection in the mouse. To produce the systemic infection, CD-1 female mice (20 g) were injected intra-peritoneally with 10^7 CFU of S. aureus strain Newman suspended in 0.5 ml of endotoxin-free PBS containing 5% mucin (w/v). The compounds were administrated by oral gavage (15 mg/kg) at 1 hour post-infection and kidneys harvested and pooled, for each animal, 5 hours after bacterial inoculation. Tissues were homogenized in PBS and homogenates serially diluted and plated for CFU determination.

Solubility in water = assay type: physicochemical; settings: read-out: solubility in water (no visible particles)
Experimental: Solubility of Compounds V and XV. The extent of solubility of compounds was evaluated in water.

SMILES: O=[N+]([O-])c1ccc(C=Cc2nc(Nc3ccc(O)cc3)c3cc(F)ccc3n2)o1 [Compound V, 6-fluoro-2-[2-(5-nitro-2-furyl)vinyl]-4-(p-hydroxyanilino)-quinazoline]
- MIC (C. jejuni ATCC 33291): 0.016 µg/mL (≈ 0.0408 µM)
- MIC (H. influenzae ATCC 49247): 0.03 µg/mL (≈ 0.0765 µM)
- MIC (H. influenzae ATCC 49766): 0.06 µg/mL (≈ 0.153 µM)
- MIC [1]: 0.03 to 0.25 µg/mL (≈ 0.0765 to 0.637 µM)
- MIC (B. catarrhalis ATCC 8176 [2]): 8 ng/mL (≈ 0.0204 µM)
- MIC (E. faecium VanA): 0.03 µg/mL (≈ 0.0765 µM)
- MBC (B. catarrhalis ATCC 8176 [3]): 0.03 µg/mL (≈ 0.0765 µM)
- MBCs relative to the MICs [4]: equal to or only 2 to 4-fold higher than the MICs
- bactericidal action compared with ciprofloxacin (time-kill) (S. aureus ATCC 29213): superior to ciprofloxacin
- bactericidal action (time-kill) (S. aureus MRSA COL): similarly bactericidal
- time to strongly bactericidal action (time-kill) (E. coli ATCC 25922; E. coli ATCC 25922, at the MIC or a multiple of the MIC, FIG. 2): ≤ 2 h
- bactericidal action compared with ciprofloxacin (time-kill) (E. coli ATCC 25922; E. coli, at their respective MIC or a multiple of the MIC): superior to ciprofloxacin
- viable bacteria in the kidneys (S. aureus strain Newman): reduced significantly
- solubility (Solubility in water): 250 µg/mL (≈ 637 µM)
